US20130030009A1, “METHOD FOR THE TREATMENT AND/OR PREVENTION OF ORAL ALLERGIC SYMPTIONS OF THE LIPS DUE TO ORAL CONTACT WITH A FOOD ALLERGEN” (priority 2010, published 2013)

Key:
[1] = test system: patients afflicted with oral allergy syndrome; test: Cromolyn Sodium mouth rinse in patients afflicted with oral allergy syndrome; type: in vivo
Excerpt: Using the teachings of the co-pending patent application entitled “PREPARATIONS FOR TOPICAL PREVENTION AND/OR TREATMENT OF ORAL […] SYMPTOMS DUE TO ORAL CONTACT WITH FRUITS AND/OR VEGETABLES”, filed Dec. […] These patients experienced much relief of their oral allergy and throat allergy symptoms. […] Thus, it seems that sometimes mouth rinsing of Cromolyn Sodium fails to deliver sufficient Cromolyn Sodium to the mast cells of the lip.

[2] = when swallowed may include headache, GI upset, itchiness, irritability, rash, muscle pain; cited from earlier work

Compound: O=C(O)c1cc(=O)c2c(OCC(O)COc3cccc4oc(C(=O)O)cc(=O)c34)cccc2o1 [Cromolyn Sodium]
- lip itchiness of internal and external lip surfaces after mouth rinse [1]: some individuals still experienced lip itchiness
- relief of oral allergy and throat allergy symptoms [1]: much relief
- side effects [2]: very uncommon
